The text below walks through data of ChEMBL document CHEMBL1154564 (J Nat Prod, 2000).

Assay [1] deals with T1, Alpha-1B adrenergic receptor (Rattus norvegicus, UniProt P15823).
T1 sequence (P15823 whole entry): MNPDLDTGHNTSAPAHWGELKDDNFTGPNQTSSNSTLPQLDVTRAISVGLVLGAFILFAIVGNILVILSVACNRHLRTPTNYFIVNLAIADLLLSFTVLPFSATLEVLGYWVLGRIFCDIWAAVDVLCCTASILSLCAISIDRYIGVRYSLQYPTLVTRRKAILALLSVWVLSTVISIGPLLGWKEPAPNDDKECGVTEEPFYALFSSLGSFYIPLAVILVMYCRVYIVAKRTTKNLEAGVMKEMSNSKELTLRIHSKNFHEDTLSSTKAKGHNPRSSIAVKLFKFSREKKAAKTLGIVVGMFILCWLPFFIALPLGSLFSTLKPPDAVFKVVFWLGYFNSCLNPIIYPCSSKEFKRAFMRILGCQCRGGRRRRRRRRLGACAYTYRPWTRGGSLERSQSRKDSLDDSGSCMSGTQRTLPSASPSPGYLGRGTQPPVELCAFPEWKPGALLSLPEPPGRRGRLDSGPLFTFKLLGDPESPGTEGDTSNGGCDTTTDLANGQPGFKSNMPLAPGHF
The experiment in a line: Displacement of [3H]prazosin from adrenergic Alpha-1B receptor in rat brain membrane. Type of assay: cell membranes. For orientation: Displacement assays read how much labelled ligand stays bound in the presence of the test substance.

The next assay has as its target D(2) dopamine receptor (Rattus norvegicus, UniProt P61169). The experiment in a line: Displacement of [3H]raclopride from dopamine D2 receptor in Wistar rat striatal membrane. Type of assay: cell membranes, Striatum.
For assay [2], the species on record is Rattus norvegicus. The experiment in a line: Selectivity ratio of IC50 for Wistar rat dopamine D2 receptor to IC50 for Wistar rat dopamine D1 receptor.
The species named for assay [3] is Rattus norvegicus. The experiment in a line: Selectivity ratio of IC50 for rat adrenergic alpha1A receptor to IC50 for adrenergic Alpha-1B receptor.
For assay [4], the target named is T2, Alpha-1A adrenergic receptor (Rattus norvegicus, UniProt P43140).
T2 sequence (P43140 whole entry): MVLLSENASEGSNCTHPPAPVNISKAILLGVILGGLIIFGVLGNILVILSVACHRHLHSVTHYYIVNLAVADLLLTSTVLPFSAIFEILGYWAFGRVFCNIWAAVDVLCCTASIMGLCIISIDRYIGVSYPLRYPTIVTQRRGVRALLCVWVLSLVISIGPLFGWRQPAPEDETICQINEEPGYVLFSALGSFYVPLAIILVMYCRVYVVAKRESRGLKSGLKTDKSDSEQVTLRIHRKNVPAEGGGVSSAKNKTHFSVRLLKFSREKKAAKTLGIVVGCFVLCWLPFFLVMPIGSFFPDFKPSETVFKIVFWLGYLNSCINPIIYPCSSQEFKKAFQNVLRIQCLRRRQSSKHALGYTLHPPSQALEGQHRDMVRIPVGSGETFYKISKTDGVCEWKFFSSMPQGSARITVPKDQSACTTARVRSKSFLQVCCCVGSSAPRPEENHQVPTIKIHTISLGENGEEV
In words: Displacement of [3H]prazosin from adrenergic alpha1A receptor in rat brain membrane. It counts as cell membranes.

The target of another assay is D(1A) dopamine receptor (Rattus norvegicus, UniProt P18901). In words: Displacement of [3H]SCH23390 from dopamine D1 receptor in Wistar rat striatal membrane. It counts as cell membranes, Striatum.
D(1A) dopamine receptor, sequence (P18901 whole entry): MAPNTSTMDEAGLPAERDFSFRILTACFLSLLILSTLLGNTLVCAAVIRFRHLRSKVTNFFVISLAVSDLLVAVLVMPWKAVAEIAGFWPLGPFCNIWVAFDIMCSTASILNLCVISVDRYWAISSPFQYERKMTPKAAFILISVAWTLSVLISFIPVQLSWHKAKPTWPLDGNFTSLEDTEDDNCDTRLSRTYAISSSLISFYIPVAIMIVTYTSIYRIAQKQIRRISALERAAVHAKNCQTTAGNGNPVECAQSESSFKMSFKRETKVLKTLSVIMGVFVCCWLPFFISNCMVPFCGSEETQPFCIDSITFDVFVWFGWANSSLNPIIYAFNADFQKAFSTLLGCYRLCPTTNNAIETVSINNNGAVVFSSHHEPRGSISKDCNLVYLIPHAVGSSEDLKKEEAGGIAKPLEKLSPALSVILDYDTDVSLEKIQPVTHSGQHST

D(2) dopamine receptor, sequence (P61169 whole entry): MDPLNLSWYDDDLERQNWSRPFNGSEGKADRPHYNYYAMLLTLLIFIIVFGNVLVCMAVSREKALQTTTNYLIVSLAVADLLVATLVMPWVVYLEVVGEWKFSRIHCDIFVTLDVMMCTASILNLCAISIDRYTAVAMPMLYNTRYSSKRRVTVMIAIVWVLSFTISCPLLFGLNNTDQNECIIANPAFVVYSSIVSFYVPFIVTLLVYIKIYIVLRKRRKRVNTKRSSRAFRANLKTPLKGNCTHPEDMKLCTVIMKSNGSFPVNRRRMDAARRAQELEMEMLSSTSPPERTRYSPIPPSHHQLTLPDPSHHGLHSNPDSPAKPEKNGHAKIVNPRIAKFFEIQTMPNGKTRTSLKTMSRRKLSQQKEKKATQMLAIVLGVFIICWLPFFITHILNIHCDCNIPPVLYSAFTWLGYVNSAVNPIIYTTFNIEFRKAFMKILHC

As a reminder, the Ki is the equilibrium dissociation constant of an inhibitor or competing ligand from its target. As a reminder, the IC50 is the concentration needed to halve the response being measured. With `COc1cc2c(cc1O)C[C@H]1c3c(c(Cl)c(O)c(OC)c3-2)CCN1C`, the inhibitory constant (Ki) in assay [1] is 269 nM; in assay [4] it was 2.24 nM. Also, the IC50 worked out at 720 nM at D(2) dopamine receptor and 81 nM at D(1A) dopamine receptor. Further, the Ratio IC50 in the assay filed under Rattus norvegicus [2] stood at 8.9. For the same compound, in the assay listed under Rattus norvegicus [3], the Ratio turned out to be 122.
For the compound `COc1cc2c(cc1O)C[C@H]1c3c(c(I)c(O)c(OC)c3-2)CCN1C`, the IC50 on D(2) dopamine receptor was 96 nM; on D(1A) dopamine receptor it was 3 nM. Besides, the Ratio IC50 in the assay filed under Rattus norvegicus [2] was found to be 32.
With `COc1cc2c(cc1O)C[C@H]1c3c(c(Br)c(O)c(OC)c3-2)CCN1C` [3-BROMOBOLDINE], the Ki in assay [1] is 135 nM; in assay [4] it was 1.17 nM. Besides, the figures for the IC50 at D(2) dopamine receptor and on D(1A) dopamine receptor were 1050 nM and 66 nM, respectively. In addition, in the assay listed under Rattus norvegicus [2], the Ratio IC50 amounted to 15.9. Moreover, in the assay listed under Rattus norvegicus [3], the Ratio turned out to be 120.
`COc1cc2c(cc1O)C[C@H]1c3c(cc(O)c(OC)c3-2)CCN1C` [BOLDINE]: the Ki is 316 nM in assay [1] and 4.9 nM in assay [4].
For `COc1cc2c(c(Br)c1O)C[C@H]1c3c(c(Br)c(O)c(OC)c3-2)CCN1C`, the Ki is 120 nM in assay [1] and 1.35 nM in assay [4]. Further, the IC50 on D(2) dopamine receptor was determined as 1910 nM; on D(1A) dopamine receptor it was 206 nM. Besides, the Ratio IC50 in the assay listed under Rattus norvegicus [2] was determined as 9.3. In the assay filed under Rattus norvegicus [3], the Ratio was determined as 90.
